Tests used:
Assay in all cases: relative viability (nuclei count vs DMSO), 5 days (fraction); higher = more cells survive
XMD14-99 + Foretinib = compound: CN1CCN(CC1)C2=CC(=C(C=C2)NC3=NC(=C(S3)C(=O)C4=C(C=CC=C4Cl)Cl)N)OC [XMD14-99] + COc1cc2c(Oc3ccc(NC(=O)C4(C(=O)Nc5ccc(F)cc5)CC4)cc3F)ccnc2cc1OCCCN1CCOCC1 [Foretinib] (partner 0.25 µM)
Summary of the method: (§1)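 Relative viability divides the nuclei count in treated wells by that in vehicle wells. Lung cancer cell lines were seeded in 1536-well plates, dosed by pin tool the next day, and fixed and stained after 5 days in one step with final 0.05% Triton X-100, 1% formaldehyde and 1 ug/ml Hoechst. Dosing was a single drug or a fixed anchor-drug dose plus five library-drug doses (not always all listed) in √10 steps, and values are medians of duplicate plates imaged at 4×.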

XMD14-99 + Decitabine = compound: CN1CCN(CC1)C2=CC(=C(C=C2)NC3=NC(=C(S3)C(=O)C4=C(C=CC=C4Cl)Cl)N)OC [XMD14-99] + Nc1ncn([C@H]2C[C@H](O)[C@@H](CO)O2)c(=O)n1 [Decitabine] (partner 2 µM)
Summary of the method: as §1

XMD14-99 + Vorinostat = compound: CN1CCN(CC1)C2=CC(=C(C=C2)NC3=NC(=C(S3)C(=O)C4=C(C=CC=C4Cl)Cl)N)OC [XMD14-99] + O=C(CCCCCCC(=O)Nc1ccccc1)NO [Vorinostat] (partner 1 µM)
Summary of the method: as §1

AZD1208 + Navitoclax = compound: N[C@@H]1CCCN(c2c(/C=C3\SC(=O)NC3=O)cccc2-c2ccccc2)C1 [AZD1208] + CC1(C)CCC(c2ccc(Cl)cc2)=C(CN2CCN(c3ccc(C(=O)NS(=O)(=O)c4ccc(N[C@H](CCN5CCOCC5)CSc5ccccc5)c(S(=O)(=O)C(F)(F)F)c4)cc3)CC2)C1 [Navitoclax] (partner 0.5 µM)
Summary of the method: as §1

Cell Line | relative viability (XMD14-99 + Foretinib; first compound 0.08 µM) | relative viability (XMD14-99 + Foretinib; first compound 0.8 µM) | relative viability (XMD14-99 + Foretinib; first compound 2.53 µM) | relative viability (XMD14-99 + Foretinib; first compound 8 µM) | relative viability (XMD14-99 + Decitabine; first compound 0.08 µM) | relative viability (XMD14-99 + Decitabine; first compound 0.8 µM) | relative viability (XMD14-99 + Decitabine; first compound 2.53 µM) | relative viability (XMD14-99 + Decitabine; first compound 8 µM) | relative viability (XMD14-99 + Vorinostat; first compound 0.08 µM) | relative viability (XMD14-99 + Vorinostat; first compound 0.8 µM) | relative viability (XMD14-99 + Vorinostat; first compound 2.53 µM) | relative viability (XMD14-99 + Vorinostat; first compound 8 µM) | relative viability (AZD1208 + Navitoclax; first compound 0.08 µM) | relative viability (AZD1208 + Navitoclax; first compound 0.253 µM) | relative viability (AZD1208 + Navitoclax; first compound 0.8 µM) | relative viability (AZD1208 + Navitoclax; first compound 2.53 µM) | relative viability (AZD1208 + Navitoclax; first compound 8 µM)
LK-2 | 0.99 | 1.17 | 0.991 | 1.2 | 0.258 | 0.297 | 0.328 | 0.21 | 0.364 | 0.396 | 0.548 | 0.462 | 0.77 | 0.523 | 0.494 | 0.433 | 0.347
LOU-NH91 | 0.919 | 0.962 | 0.916 | 0.802 | 0.868 | 0.853 | 0.807 | 0.776 | 0.947 | 1.03 | 0.805 | 0.725 | 0.689 | 0.709 | 0.648 | 0.638 | 0.577
LU99A | 0.893 | 0.872 | 0.729 | 0.649 | 0.852 | 0.918 | 0.784 | 0.669 | 0.53 | 0.462 | 0.444 | 0.37 | 0.805 | 0.855 | 0.864 | 0.712 | 0.514
LXF-289 | 0.964 | 0.949 | 0.923 | 0.898 | 0.378 | 0.371 | 0.37 | 0.36 | 0.754 | 0.696 | 0.726 | 0.738 | 0.955 | 1.01 | 0.932 | 0.978 | 1.03
NCI-H23 | 0.908 | 0.981 | 0.843 | 0.821 | 0.288 | 0.262 | 0.338 | 0.309 | 0.641 | 0.581 | 0.604 | 0.464 | 0.843 | 1.18 | 0.721 | 0.712 | 0.646
NCI-H322M | 1.01 | 0.893 | 0.932 | 0.736 | 0.684 | 0.667 | 0.706 | 0.645 | 0.862 | 0.965 | 0.852 | 0.746 | 1.1 | 1.27 | 1.2 | 1.13 | 1.2
NCI-H441 | 0.766 | 0.993 | 0.849 | 0.751 | 0.279 | 0.242 | 0.308 | 0.234 | 0.823 | 0.75 | 0.745 | 0.681 | 0.936 | 0.698 | 0.65 | 0.289 | 0.393
NCI-H460 | 1.03 | 1.03 | 1.01 | 0.808 | 0.461 | 0.486 | 0.495 | 0.385 | 0.735 | 0.693 | 0.625 | 0.49 | 1.05 | 1.34 | 1.17 | 1.26 | 1.16
NCI-H520 | 0.711 | 0.712 | 0.662 | 0.501 | 0.465 | 0.468 | 0.483 | 0.44 | 0.686 | 0.635 | 0.658 | 0.454 | 0.973 | 1.22 | 0.991 | 0.838 | 0.767
NCI-H596 | 0.957 | 0.895 | 0.832 | 0.955 | 1.03 | 0.943 | 0.858 | 0.964 | 0.635 | 0.645 | 0.794 | 0.536 | 0.912 | 1.02 | 0.85 | 0.827 | 0.651
NCI-H647 | 1.3 | 1.15 | 1.22 | 1.01 | 0.378 | 0.41 | 0.475 | 0.364 | 0.522 | 0.581 | 0.648 | 0.582 | 0.934 | 0.974 | 1.14 | 1.01 | 0.801
NCI-H727 | 0.95 | 0.893 | 0.684 | 0.555 | 0.881 | 0.805 | 0.857 | 0.599 | 1.25 | 0.989 | 1.06 | 0.994 | 0.421 | 0.357 | 0.331 | 0.316 | 0.29
NCI-H838 | 1.01 | 0.943 | 0.926 | 0.887 | 0.477 | 0.452 | 0.426 | 0.436 | 0.685 | 0.626 | 0.577 | 0.414 | 1.07 | 1.18 | 1.1 | 1.12 | 1.01
NCI-H1355 | 0.994 | 0.913 | 0.808 | 0.706 | 0.381 | 0.339 | 0.343 | 0.346 | 0.636 | 0.604 | 0.586 | 0.556 | 0.963 | 0.861 | 0.785 | 0.932 | 0.853
NCI-H1395 | 0.986 | 0.965 | 0.998 | 0.901 | 0.696 | 0.7 | 0.712 | 0.653 | 0.889 | 0.891 | 0.761 | 0.527 | 1.05 | 1.23 | 0.956 | 1.02 | 0.872
NCI-H1437 | 1.25 | 1.05 | 1.06 | 0.891 | 0.621 | 0.469 | 0.458 | 0.417 | 0.797 | 0.66 | 0.641 | 0.382 | 1.13 | 1.11 | 1.02 | 1.16 | 1.07

Cell Line | relative viability (XMD14-99 + Foretinib; first compound 0.08 µM) | relative viability (XMD14-99 + Foretinib; first compound 0.8 µM) | relative viability (XMD14-99 + Foretinib; first compound 2.53 µM) | relative viability (XMD14-99 + Foretinib; first compound 8 µM) | relative viability (XMD14-99 + Decitabine; first compound 0.08 µM) | relative viability (XMD14-99 + Decitabine; first compound 0.8 µM) | relative viability (XMD14-99 + Decitabine; first compound 2.53 µM) | relative viability (XMD14-99 + Decitabine; first compound 8 µM) | relative viability (XMD14-99 + Vorinostat; first compound 0.08 µM) | relative viability (XMD14-99 + Vorinostat; first compound 0.8 µM) | relative viability (XMD14-99 + Vorinostat; first compound 2.53 µM) | relative viability (XMD14-99 + Vorinostat; first compound 8 µM) | relative viability (AZD1208 + Navitoclax; first compound 0.08 µM) | relative viability (AZD1208 + Navitoclax; first compound 0.253 µM) | relative viability (AZD1208 + Navitoclax; first compound 0.8 µM) | relative viability (AZD1208 + Navitoclax; first compound 2.53 µM) | relative viability (AZD1208 + Navitoclax; first compound 8 µM)
NCI-H1650 | 1.14 | 1.27 | 1.13 | 0.941 | 0.393 | 0.418 | 0.41 | 0.338 | 0.554 | 0.558 | 0.678 | 0.427 | 1.07 | 1.15 | 1.04 | 1.02 | 1.19
NCI-H1651 | 0.811 | 0.706 | 0.866 | 0.694 | 0.683 | 0.546 | 0.601 | 0.509 | 0.614 | 0.487 | 0.534 | 0.448 | 0.879 | 0.929 | 0.858 | 0.887 | 0.774
NCI-H1666 | 1.02 | 0.859 | 0.866 | 0.712 | 0.81 | 0.628 | 0.686 | 0.567 | 1.04 | 0.967 | 0.947 | 0.895 | 0.792 | 0.802 | 0.706 | 0.801 | 0.942
NCI-H1734 | 0.821 | 0.826 | 0.793 | 0.7 | 0.505 | 0.494 | 0.477 | 0.477 | 0.803 | 0.785 | 0.799 | 0.581 | 0.753 | 0.932 | 0.714 | 0.724 | 0.582
NCI-H1755 | 0.916 | 0.9 | 0.817 | 0.687 | 0.761 | 0.68 | 0.698 | 0.709 | 0.661 | 0.742 | 0.686 | 0.608 | 0.991 | 0.989 | 1.02 | 0.952 | 0.786
NCI-H1793 | 0.704 | 0.608 | 0.644 | 0.641 | 0.502 | 0.521 | 0.473 | 0.427 | 0.767 | 0.916 | 0.627 | 0.52 | 0.336 | 0.47 | 0.354 | 0.469 | 0.364
NCI-H1915 | 1.06 | 1.02 | 0.961 | 0.859 | 0.25 | 0.255 | 0.263 | 0.259 | 0.519 | 0.491 | 0.486 | 0.377 | 0.794 | 0.797 | 0.839 | 0.832 | 0.825
NCI-H1944 | 0.886 | 0.841 | 0.7 | 0.631 | 0.48 | 0.458 | 0.414 | 0.372 | 0.547 | 0.586 | 0.486 | 0.449 | 1.05 | 1.01 | 0.977 | 1.01 | 0.832
NCI-H1975 | 1.01 | 0.92 | 0.924 | 0.817 | 0.495 | 0.412 | 0.449 | 0.317 | 0.675 | 0.673 | 0.612 | 0.475 | 1.19 | 1.05 | 1.14 | 1.01 | 1.09
NCI-H1993 | 0.804 | 0.674 | 0.643 | 0.595 | 0.561 | 0.603 | 0.587 | 0.622 | 0.595 | 0.889 | 0.793 | 0.714 | – | 0.824 | 0.606 | 0.812 | 0.691
NCI-H2009 | 1.21 | 1.25 | 1.14 | 1.12 | 0.342 | 0.343 | 0.378 | 0.371 | 0.815 | 0.727 | 0.63 | 0.423 | 1.2 | 1.14 | 1.12 | 1.21 | 1.15
NCI-H2023 | 0.986 | 0.842 | 0.704 | 0.698 | 0.222 | 0.212 | 0.228 | 0.166 | 0.572 | 0.648 | 0.732 | 0.363 | 1.02 | 0.99 | 0.977 | 0.934 | 0.959
NCI-H2085 | 0.915 | 0.959 | 0.704 | 0.551 | 0.561 | 0.529 | 0.523 | 0.45 | 0.768 | 0.788 | 0.768 | 0.613 | 1.02 | 1.29 | 1.13 | 1.14 | 1.02
NCI-H2087 | 1.05 | 0.86 | 0.746 | 0.569 | 0.282 | 0.264 | 0.234 | 0.192 | 0.617 | 0.668 | 0.864 | 0.449 | 1.05 | 1.07 | 1.03 | 0.91 | 0.836
NCI-H2126 | 1.19 | 1.13 | 1.2 | 0.832 | 0.629 | 0.537 | 0.611 | 0.503 | 0.694 | 0.806 | 0.694 | 0.579 | 0.902 | 0.753 | 0.812 | 0.788 | 0.731

— the supplement of paper PMC10307832
